Measurements: US8153818B2, “Triazolyl phenyl benzenesulfonamides” (ChemoCentryx, Inc., priority 2006, dated 2012)

Molecular target: T1, CCR9 (Homo sapiens, UniProt P51686)
T1 construct: chemokine expressing cells (such as THP-1 cells for CCR2 assay or MOLT-4 cells for CCR9 assay); host or cells: MOLT-4
T1 sequence (P51686 1-369): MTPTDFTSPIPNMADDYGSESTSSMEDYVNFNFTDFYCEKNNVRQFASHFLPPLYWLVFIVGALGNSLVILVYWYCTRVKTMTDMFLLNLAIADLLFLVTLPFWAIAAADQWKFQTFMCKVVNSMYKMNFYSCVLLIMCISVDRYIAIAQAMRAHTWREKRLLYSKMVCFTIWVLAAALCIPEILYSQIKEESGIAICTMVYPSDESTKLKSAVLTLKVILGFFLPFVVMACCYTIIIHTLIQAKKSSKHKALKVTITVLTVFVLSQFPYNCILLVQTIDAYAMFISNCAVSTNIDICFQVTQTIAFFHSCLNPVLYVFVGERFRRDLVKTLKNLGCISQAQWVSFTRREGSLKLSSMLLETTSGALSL
Assay: CCR9 activity in one of the chemotaxis, binding or calcium mobilization assays
Assay type: cell-based
Conditions: assay not specified per compound
How it was run: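 Chemotaxis: THP-1 cells (CCR2, 0.1 nM MCP-1, 90 min) or MOLT-4 cells (CCR9, 50 nM TECK, 150 min) preincubated with compound 15 min RT, migration at 37 °C through 5-μm membrane, CyQUANT read; IC50 by nonlinear regression. Calcium flux: Fluo-4-loaded cells, 0.1 nM MCP-1 or 25 nM TECK. Binding: THP-1, ~50 pM [125I]MCP-1, 3 h, 4 °C.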

| IC50 | SMILES |
| --- | --- |
| < 1000 nM | CC(C)c1nnc(-c2cc(Cl)c(F)cc2NS(=O)(=O)c2ccc(C(C)(C)C)cc2)n1C1CCOC1 (stereo not drawn) [Compound 81] |
| < 1000 nM | CC(C)n1c(-c2cc(Cl)c(F)cc2NS(=O)(=O)c2ccc(C(C)(C)C)cc2)nnc1C1CCOC1 (stereo not drawn) [Compound 82] |
| < 1000 nM | Cc1nnc(-c2cc(Cl)ccc2NS(=O)(=O)c2ccc(C(C)(C)C)cc2)n1CCN [Compound 83, N-(2-(4-(2-aminoethyl)-5-methyl-4H-1,2,4-triazol-3-yl)-4-chlorophenyl)-4-tert-butylbenzenesulfonamide] |
| < 1000 nM | Cc1nnc(-c2cc(Cl)ccc2NS(=O)(=O)c2ccc(C(C)(C)C)cc2)n1C1CCC1 [Compound 84, 4-tert-butyl-N-(4-chloro-2-(4-cyclobutyl-5-methyl-4H-1,2,4-triazol-3-yl)phenyl)benzenesulfonamide] |
| < 1000 nM | CC(C)(C)c1ccc(S(=O)(=O)Nc2cc(F)c(Cl)cc2-c2nncn2C2CNC2)cc1 [Compound 85] |
| < 1000 nM | CC(C)n1c(-c2cc(Cl)ccc2NS(=O)(=O)c2ccc(C(C)(C)C)cc2)nnc1C(F)(F)F [Compound 86, 4-tert-butyl-N-(4-chloro-2-(4-isopropyl-5-(trifluoromethyl)-4H-1,2,4-triazol-3-yl)phenyl)benzenesulfonamide] |
| < 1000 nM | CCn1c(-c2cc(Cl)c(F)cc2NS(=O)(=O)c2ccc(C(C)(C)C)cc2)nnc1C(C)C [Compound 87, 4-tert-butyl-N-(4-chloro-2-(4-ethyl-5-isopropyl-4H-1,2,4-triazol-3-yl)-5-fluorophenyl)benzenesulfonamide] |
| < 1000 nM | CCc1nnc(-c2cc(Cl)c(F)cc2NS(=O)(=O)c2ccc(C(C)(C)C)cc2)n1[C@H]1CCNC1 [Compound 88] |
| < 1000 nM | Cn1c(CCS(C)(=O)=O)nnc1-c1cc(Cl)c(F)cc1NS(=O)(=O)c1ccc(C(C)(C)C)cc1 [Compound 89, 4-tert-butyl-N-(4-chloro-5-fluoro-2-(4-methyl-5-(2-(methylsulfonyl)ethyl)-4H-1,2,4-triazol-3-yl)phenyl)benzenesulfonamide] |
| < 1000 nM | CC(C)(C)c1ccc(S(=O)(=O)Nc2cc(F)c(Cl)cc2-c2nncn2[C@H]2CCNC2=O)cc1 [Compound 90] |
| < 1000 nM | CC(=O)N1CCC(n2c(C)nnc2-c2cc(Cl)ccc2NS(=O)(=O)c2ccc(C(C)(C)C)cc2)CC1 [Compound 91] |
| < 1000 nM | CC(C)n1c(N)nnc1-c1cc(Cl)ccc1NS(=O)(=O)c1ccc(C(C)(C)C)cc1 [Compound 92, N-(2-(5-amino-4-isopropyl-4H-1,2,4-triazol-3-yl)-4-chlorophenyl)-4-tert-butylbenzenesulfonamide] |
| < 1000 nM | Cc1nnc(-c2cc(Cl)ccc2NS(=O)(=O)c2ccc(C(C)(C)C)cc2)n1C1CCN(S(C)(=O)=O)CC1 [Compound 93] |
| < 1000 nM | Cc1nnc(-c2cc(Cl)ccc2NS(=O)(=O)c2ccc(C(C)(C)C)cc2)n1C1CCN(C(N)=O)CC1 [Compound 94] |
| < 1000 nM | Cc1nnc(-c2ccc(Cl)cc2NS(=O)(=O)c2ccc(C(C)(C)C)cc2)n1C(C)C [Compound 95, 4-tert-butyl-N-(5-chloro-2-(4-isopropyl-5-methyl-4H-1,2,4-triazol-3-yl)phenyl)benzenesulfonamide] |
| < 1000 nM | COCc1nnc(-c2cc(Cl)ccc2NS(=O)(=O)c2ccc(C(C)(C)C)cc2)n1C(C)C [Compound 96, 4-tert-butyl-N-(4-chloro-2-(4-isopropyl-5-(methoxymethyl)-4H-1,2,4-triazol-3-yl)phenyl)benzenesulfonamide] |
| < 1000 nM | Cn1c(-c2ccccn2)nnc1-c1cc(Cl)ccc1NS(=O)(=O)c1ccc(C(C)(C)C)cc1 [Compound 97, 4-tert-butyl-N-(4-chloro-2-(4-methyl-5-(pyridin-2-yl)-4H-1,2,4-triazol-3-yl)phenyl)benzenesulfonamide] |
| < 1000 nM | CC(C)n1c(CN(C)C)nnc1-c1cc(Cl)ccc1NS(=O)(=O)c1ccc(C(C)(C)C)cc1 [Compound 98, 4-tert-butyl-N-(4-chloro-2-(5-((dimethylamino)methyl)-4-isopropyl-4H-1,2,4-triazol-3-yl)phenyl)benzenesulfonamide] |
